One test addresses T1, BRAF G466V (Homo sapiens, UniProt P15056, G466V).
T1 construct: expressed in transfected cells
As to the kind of experiment: Cellular assay of target protein degradation, T-Rex 293 cells stably transfected with HA-BRAF G466V (HA immunofluorescence, high content imaging). It is filed as cell-based. The following applies: T-Rex 293 HA-BRAF G466V; for DC50: half maximal degradation, read-out: BRaf G466V DC50; for Dmax: maximum degradation observed. The procedure, abridged: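 First, stably transfected T-Rex 293 cells were plated with 0.75 ng/mL doxycycline and grown for 24 hours. Next, compound (final 30 nM to 3 pM, 0.1% DMSO) was added for another 24 hours at 37° C. Finally, cells were fixed, stained for HA and imaged.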

Another test has as its target T2, BRAF V600E (Homo sapiens, UniProt P15056, V600E).
T2 construct: expressed in transfected cells
As to the kind of experiment: Cellular assay of target protein degradation, T-Rex 293 cells stably transfected with HA-BRAF_V600E (HA immunofluorescence, high content imaging). The note with it: T-Rex 293 HA-BRAF V600E; for DC50: half maximal degradation, read-out: BRaf V600E DC50; for Dmax: maximum degradation observed. It is filed as cell-based. The procedure, abridged: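 Read-out is anti-HA immunofluorescence quantified by high-content imaging, giving half-maximal degradation concentration (DC50) and maximum degradation (Dmax, percent of control). Cells expressed the construct under 1 ng/mL doxycycline and received compound (1 μM to 0.1 nM final, 0.1% DMSO) for 24 h at 37 °C.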

Some results are limits rather than exact numbers.

Here are results for 13 compounds from US12180193B2, “Accelerating fibrosarcoma protein degrading compounds and associated methods of use” (Arvinas Operations, Inc., priority 2020, dated 2024).

What is called DC50 is the midpoint of the concentration-degradation curve. A word on the Dmax: it is the largest share of the target that was removed. High values mean deep degradation, low ones shallow degradation.

T2 sequence (P15056 whole entry V600E): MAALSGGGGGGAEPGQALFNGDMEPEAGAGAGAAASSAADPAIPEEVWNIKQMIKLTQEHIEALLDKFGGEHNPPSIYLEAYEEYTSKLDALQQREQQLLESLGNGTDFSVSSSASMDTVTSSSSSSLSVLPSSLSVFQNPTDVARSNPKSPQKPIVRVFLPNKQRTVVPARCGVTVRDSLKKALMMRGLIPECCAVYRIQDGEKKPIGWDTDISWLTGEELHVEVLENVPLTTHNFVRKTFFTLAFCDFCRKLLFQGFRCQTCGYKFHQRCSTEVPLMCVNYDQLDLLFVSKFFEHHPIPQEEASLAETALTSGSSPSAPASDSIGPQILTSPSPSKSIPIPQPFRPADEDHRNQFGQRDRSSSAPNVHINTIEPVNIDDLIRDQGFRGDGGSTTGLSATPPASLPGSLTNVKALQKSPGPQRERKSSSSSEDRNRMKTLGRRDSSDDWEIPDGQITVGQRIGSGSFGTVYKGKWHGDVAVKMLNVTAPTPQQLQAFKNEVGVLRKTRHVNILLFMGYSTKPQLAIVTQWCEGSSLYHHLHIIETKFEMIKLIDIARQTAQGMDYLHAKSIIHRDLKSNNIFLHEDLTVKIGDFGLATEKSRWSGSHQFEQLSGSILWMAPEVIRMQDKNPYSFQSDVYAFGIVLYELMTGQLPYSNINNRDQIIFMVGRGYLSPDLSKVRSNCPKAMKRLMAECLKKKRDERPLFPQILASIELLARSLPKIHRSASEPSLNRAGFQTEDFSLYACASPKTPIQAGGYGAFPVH
T1 sequence (P15056 whole entry G466V): as the sequence (P15056 whole entry V600E) above, with G466V, E600V counted along it

As for `O=C1CCC(N2Cc3cc(N4CC(CN5CCC(Cc6ncc(-c7cnc8[nH]cc(C(=O)c9c(F)ccc(NS(=O)(=O)N%10CC[C@@H](F)C%10)c9F)c8c7)cn6)CC5)C4)ccc3C2=O)C(=O)N1` (stereo partly drawn) [Compound 194, (3R)-N-{3-[5-(2-{[1-({1-[2-(2,6-dioxopiperidin-3-yl)-1-oxo-2,3-dihydro-1H-isoindol-5-yl]azetidin-3-yl}methyl)piperidin-4-yl]methyl}pyrimidin-5-yl)-1H-pyrrolo[2,3-b]pyridine-3-carbonyl]-2,4-difluorophenyl}-3-fluoropyrrolidine-1-sulfonamide], at BRAF G466V, the DC50 lay within 1 to 10 nM and the Dmax is above 70%. In addition, on BRAF V600E, the DC50 was 50 to 500 nM and the Dmax is 35 to 70%.
With `CN(CCN1CCN(c2ccc(-c3cnc4[nH]cc(C(=O)c5c(F)ccc(NS(=O)(=O)N6CC[C@@H](F)C6)c5F)c4c3)cc2)CC1)[C@H]1CC[C@H](Oc2ccc3c(c2)CN(C2CCC(=O)NC2=O)C3=O)CC1` (stereo partly drawn) [Compound 195, (3R)-N-[2,4-difluoro-3-(5-{4-[4-(2-{methyl[(1r,4r)-4-{[2-(2,6-dioxopiperidin-3-yl)-1-oxo-2,3-dihydro-1H-isoindol-5-yl]oxy}cyclohexyl]amino}ethyl)piperazin-1-yl]phenyl}-1H-pyrrolo[2,3-b]pyridine-3-carbonyl)phenyl]-3-fluoropyrrolidine-1-sulfonamide], on BRAF G466V, the DC50 was 1 to 10 nM and the Dmax lay in the range of 35 to 70%. Besides, at BRAF V600E, the DC50 is 5 to 50 nM and the Dmax was in the range of 35 to 70%.
Take `O=C1CC[C@H](NC(=O)c2cc(C3CCN(CC4CCN(c5ccc(-c6cnc7[nH]cc(C(=O)c8c(F)ccc(NS(=O)(=O)N9CC[C@@H](F)C9)c8F)c7c6)cc5)CC4)CC3)ccc2F)C(=O)N1` [Compound 196, 5-(1-{[1-(4-{3-[2,6-difluoro-3-({[(3R)-3-fluoropyrrolidin-1-yl]sulfonyl}amino)benzoyl]-1H-pyrrolo[2,3-b]pyridin-5-yl}phenyl)piperidin-4-yl]methyl}piperidin-4-yl)-N-[(3S)-2,6-dioxopiperidin-3-yl]-2-fluorobenzamide]: the DC50 on BRAF G466V is 1 to 10 nM; at BRAF V600E it was 5 to 50 nM. Also, the Dmax at BRAF G466V and on BRAF V600E was 35 to 70% throughout.
As to `O=C1CC[C@@H](NC(=O)c2cc(C3CCN(CC4CCN(c5ccc(-c6cnc7[nH]cc(C(=O)c8c(F)ccc(NS(=O)(=O)N9CC[C@@H](F)C9)c8F)c7c6)cc5)CC4)CC3)ccc2F)C(=O)N1` [Compound 197, 5-(1-{[1-(4-{3-[2,6-difluoro-3-({[(3R)-3-fluoropyrrolidin-1-yl]sulfonyl}amino)benzoyl]-1H-pyrrolo[2,3-b]pyridin-5-yl}phenyl)piperidin-4-yl]methyl}piperidin-4-yl)-N-[(3R)-2,6-dioxopiperidin-3-yl]-2-fluorobenzamide], on BRAF G466V, the DC50 fell in the range of 1 to 10 nM and the Dmax lay within 35 to 70%. On BRAF V600E, the DC50 lay in the range of 5 to 50 nM and the Dmax is below 35%.
On the same counts, the results for `O=C1CCC(N2Cc3cc(C4CCN(CC5CN(c6ccc(-c7cnc8[nH]cc(C(=O)c9c(F)ccc(NS(=O)(=O)N%10CC[C@@H](F)C%10)c9F)c8c7)cc6)C5)CC4)ccc3C2=O)C(=O)N1` (stereo partly drawn) [Compound 198, (3R)-N-[3-(5-{4-[3-({4-[2-(2,6-dioxopiperidin-3-yl)-1-oxo-2,3-dihydro-1H-isoindol-5-yl]piperidin-1-yl}methyl)azetidin-1-yl]phenyl}-1H-pyrrolo[2,3-b]pyridine-3-carbonyl)-2,4-difluorophenyl]-3-fluoropyrrolidine-1-sulfonamide] are 1 to 10 nM, above 70%, 5 to 50 nM and below 35%.
On the same counts, the results for `O=C1CCN(c2ccc(C3CCN(CCC4CCN(c5ccc(-c6cnc7[nH]cc(C(=O)c8c(F)ccc(NS(=O)(=O)N9CC[C@@H](F)C9)c8F)c7c6)cc5)CC4)CC3)cc2F)C(=O)N1` [Compound 199, (3R)-N-[3-(5-[4-[4-(2-[4-[4-(2,4-dioxo-1,3-diazinan-1-yl)-3-fluorophenyl]piperidin-1-yl]ethyl)piperidin-1-yl]phenyl]-1H-pyrrolo[2,3-b]pyridine-3-carbonyl)-2,4-difluorophenyl]-3-fluoropyrrolidine-1-sulfonamide] are 1 to 10 nM, 35 to 70%, 5 to 50 nM and 35 to 70%.
On to `O=C1CCC(N2Cc3cc(N4CC(CN5CCN(C6(c7ccc(-c8cnc9[nH]cc(C(=O)c%10c(F)ccc(NS(=O)(=O)N%11CC[C@@H](F)C%11)c%10F)c9c8)cc7)CC6)CC5)C4)ccc3C2=O)C(=O)N1` (stereo partly drawn) [Compound 200, (3R)-N-{3-[5-(4-{1-[4-({1-[2-(2,6-dioxopiperidin-3-yl)-1-oxo-2,3-dihydro-1H-isoindol-5-yl]azetidin-3-yl}methyl)piperazin-1-yl]cyclopropyl}phenyl)-1H-pyrrolo[2,3-b]pyridine-3-carbonyl]-2,4-difluorophenyl}-3-fluoropyrrolidine-1-sulfonamide], for which, on BRAF G466V, the DC50 was 1 to 10 nM and the Dmax is 35 to 70%. For the same compound, at BRAF V600E, the DC50 fell in the range of 50 to 500 nM and the Dmax was in the range of 35 to 70%.
As to `O=C1CC[C@H](N2Cc3cc(N4CCC(CN5CCN(C6(c7ncc(-c8cnc9[nH]cc(C(=O)c%10c(F)ccc(NS(=O)(=O)N%11CC[C@@H](F)C%11)c%10F)c9c8)cn7)CC6)CC5)CC4)ccc3C2=O)C(=O)N1` [Compound 201, (3R)-N-[3-[5-[2-[1-[4-[[1-[2-[(3S)-2,6-dioxo-3-piperidyl]-1-oxo-isoindolin-5-yl]-4-piperidyl]methyl]piperazin-1-yl]cyclopropyl]pyrimidin-5-yl]-1H-pyrrolo[2,3-b]pyridine-3-carbonyl]-2,4-difluoro-phenyl]-3-fluoro-pyrrolidine-1-sulfonamide], the results for the DC50 at BRAF G466V and at BRAF V600E were 1 to 10 nM and 5 to 50 nM, respectively. For the same compound, the figures for the Dmax at BRAF G466V and on BRAF V600E were 35 to 70% and below 35%, respectively.
With `O=C1CC[C@H](N2Cc3cc(N4CC(CN5CCN(C6(c7ncc(-c8cnc9[nH]cc(C(=O)c%10c(F)ccc(NS(=O)(=O)N%11CC[C@@H](F)C%11)c%10F)c9c8)cn7)CC6)CC5)C4)ccc3C2=O)C(=O)N1` [Compound 202, (3R)-N-(3-{5-[2-(1-{4-[(1-{2-[(3S)-2,6-dioxopiperidin-3-yl]-1-oxo-2,3-dihydro-1H-isoindol-5-yl}azetidin-3-yl)methyl]piperazin-1-yl}cyclopropyl)pyrimidin-5-yl]-1H-pyrrolo[2,3-b]pyridine-3-carbonyl}-2,4-difluorophenyl)-3-fluoropyrrolidine-1-sulfonamide], the DC50 lay within 1 to 10 nM at BRAF G466V and 50 to 500 nM on BRAF V600E. The Dmax at BRAF G466V and on BRAF V600E was 35 to 70% in each case.
Turning to `CCc1c(NS(=O)(=O)N2CC[C@@H](F)C2)ccc(F)c1C(=O)c1c[nH]c2ncc(-c3ccc(N4CCC(CN5CCC(c6ccc7c(c6)CN([C@H]6CCC(=O)NC6=O)C7=O)CC5)CC4)cc3)cc12` [Compound 203, (3R)—N-{3-[5-(4-{4-[(4-{2-[(3S)-2,6-dioxopiperidin-3-yl]-1-oxo-2,3-dihydro-1H-isoindol-5-yl}piperidin-1-yl)methyl]piperidin-1-yl}phenyl)-1H-pyrrolo[2,3-b]pyridine-3-carbonyl]-2-ethyl-4-fluorophenyl}-3-fluoropyrrolidine-1-sulfonamide], on BRAF G466V, the DC50 was below 1 nM and the Dmax lay in the range of 35 to 70%. At BRAF V600E, the DC50 is below 5 nM and the Dmax fell in the range of 35 to 70%.
Consider `CC(C)CS(=O)(=O)Nc1ccc(F)c(C(=O)c2c[nH]c3ncc(-c4ccc(N5CCC(CN6CCC(c7ccc8c(c7)CN([C@H]7CCC(=O)NC7=O)C8=O)CC6)CC5)cc4)cc23)c1F` [Compound 204, N-{3-[5-(4-{4-[(4-{2-[(3S)-2,6-dioxopiperidin-3-yl]-1-oxo-2,3-dihydro-1H-isoindol-5-yl}piperidin-1-yl)methyl]piperidin-1-yl}phenyl)-1H-pyrrolo[2,3-b]pyridine-3-carbonyl]-2,4-difluorophenyl}-2-methylpropane-1-sulfonamide], for which the DC50 on BRAF G466V was below 1 nM; on BRAF V600E, below 5 nM. Moreover, the Dmax on BRAF G466V and on BRAF V600E was 35 to 70% in each case.
On to `N#Cc1cc(-c2cnc3[nH]cc(C(=O)c4c(F)ccc(NS(=O)(=O)N5CC[C@@H](F)C5)c4F)c3c2)ccc1N1CCC(CN2CCC(c3ccc4c(c3)CN([C@H]3CCC(=O)NC3=O)C4=O)CC2)CC1` [Compound 205, (3R)—N-{3-[5-(3-cyano-4-{4-[(4-{2-[(3S)-2,6-dioxopiperidin-3-yl]-1-oxo-2,3-dihydro-1H-isoindol-5-yl}piperidin-1-yl)methyl]piperidin-1-yl}phenyl)-1H-pyrrolo[2,3-b]pyridine-3-carbonyl]-2,4-difluorophenyl}-3-fluoropyrrolidine-1-sulfonamide], for which, at BRAF G466V, the DC50 is below 1 nM and the Dmax is 35 to 70%. For the same compound, on BRAF V600E, the half-maximal degradation concentration (DC50) was in the range of 5 to 50 nM and the Dmax was in the range of 35 to 70%.
`O=C1CC[C@H](N2Cc3cc(C4CCN(CC5CCN(c6ccc(-c7cnc8[nH]cc(C(=O)c9c(F)ccc(NS(=O)(=O)CC%10CC%10)c9F)c8c7)cc6)CC5)CC4)ccc3C2=O)C(=O)N1` [Compound 206, 1-cyclopropyl-N-{3-[5-(4-{4-[(4-{2-[(3S)-2,6-dioxopiperidin-3-yl]-1-oxo-2,3-dihydro-1H-isoindol-5-yl}piperidin-1-yl)methyl]piperidin-1-yl}phenyl)-1H-pyrrolo[2,3-b]pyridine-3-carbonyl]-2,4-difluorophenyl}methanesulfonamide]: at BRAF G466V, the DC50 was below 1 nM and the Dmax is 35 to 70%. In addition, on BRAF V600E, the DC50 lay in the range of 5 to 50 nM and the Dmax is 35 to 70%.
